From patent US9884832B2 (priority 2011, dated 2018)

Target: AM2 S31N (serine→asparagine mutation at residue 31 in the M2 protein) (Influenza A virus, UniProt P0DOF5, S31N)
Assay type: cell-based, influenza virus A/Udorn/72
Conditions: not given

Compound | S31N OOcyte Inhibition at 100 uM (%)
CCc1nc(CNC23CC4CC(CC(C4)C2)C3)no1 [Example 165a] | A (key: (A)=31-95%; (B)=0-30%)
Cn1c(CNC23CC4CC(CC(C4)C2)C3)nc2ccccc21 [Example 180a, Adamantan-1-yl-(1-methyl-1H-benzoimidazol-2-ylmethyl)-amine] | B (key: (A)=31-95%; (B)=0-30%)
C(NC12CC3CC(CC(C3)C1)C2)c1noc(C2CC2)n1 [Example 166a] | A (key: (A)=31-95%; (B)=0-30%)
Cc1cccc2nc(CNC34CC5CC(CC(C5)C3)C4)[nH]c12 [Example 184a, Adamantan-1-yl-(7-methyl-1H-benzoimidazol-2-ylmethyl)-amine] | A (key: (A)=31-95%; (B)=0-30%)
Clc1cccc2cc(CNC34CC5CC(CC(C5)C3)C4)sc12 [Example 183a, Adamantan-1-yl-(7-chloro-benzo[b]thiophen-2-ylmethyl)-amine] | B (key: (A)=31-95%; (B)=0-30%)
Fc1ccc(-c2nc(CNC34CC5CC(CC(C5)C3)C4)no2)cc1 [Example 163a] | A (key: (A)=31-95%; (B)=0-30%)
COC(=O)c1ccc(-c2ccc(CNC34CC5CC(CC(O)(C5)C3)C4)cc2)cc1 [Example 190a, 4′-[(3-Hydroxy-adamantan-1-ylamino)-methyl]-biphenyl-4-carboxylic acid methyl ester] | A (key: (A)=31-95%; (B)=0-30%)
c1cc(-c2ccc(CNC34CC5CC(CC(C5)C3)C4)cn2)cs1 [Example 59a, N-((6-(thiophen-3-yl)pyridin-3-yl)methyl)adamantan-1-amine] | A (key: (A)=31-95%; (B)=0-30%)
FC(F)(F)c1cccc(-c2nc(CNC34CC5CC(CC(C5)C3)C4)no2)c1 [Example 130a, N-((5-(3-(trifluoromethyl)phenyl)-1,2,4-oxadiazol-3-yl)methyl)adamantan-1-amine] | A (key: (A)=31-95%; (B)=0-30%)
c1ccc(-c2nc(CNC34CC5CC(CC(C5)C3)C4)cs2)cc1 [Example 132a, N-((2-phenylthiazol-4-yl)methyl)adamantan-1-amine] | B (key: (A)=31-95%; (B)=0-30%)
COc1ccc2[nH]c(CNC34CC5CC(CC(C5)C3)C4)cc2c1 [Example 182a] | A (key: (A)=31-95%; (B)=0-30%)
OC12CC3CC(C1)CC(NCc1cc(-c4ccccc4)on1)(C3)C2 [Example 194a, (1s,3r,5R,7S)-3-(((5-phenylisoxazol-3-yl)methyl)amino)adamantan-1-ol] | A (key: (A)=31-95%; (B)=0-30%)
Cc1ccc(-c2cc(CNC34CC5CC(CC(C5)C3)C4)no2)cc1 [Example 120a, N-((5-(p-tolyl)isoxazol-3-yl)methyl)adamantan-1-amine] | A (key: (A)=31-95%; (B)=0-30%)
Cc1nc(CNC23CC4CC(CC(C4)C2)C3)no1 [Example 96a, N-((5-methyl-1,2,4-oxadiazol-3-yl)methyl)adamantan-1-amine] | A (key: (A)=31-95%; (B)=0-30%)
c1csc(-c2nnc(CNC34CC5CC(CC(C5)C3)C4)s2)c1 [Example 151a, N-((5-(thiophen-2-yl)-1,3,4-thiadiazol-2-yl)methyl)adamantan-1-amine] | A (key: (A)=31-95%; (B)=0-30%)
c1csc(-c2nc(CNC34CC5CC(CC(C5)C3)C4)no2)c1 [Example 146a, N-((5-(thiophen-2-yl)-1,2,4-oxadiazol-3-yl)methyl)adamantan-1-amine] | A (key: (A)=31-95%; (B)=0-30%)
Oc1cc(-c2ccoc2)ccc1CNC12CC3CC(CC(C3)C1)C2 [Example 46a] | A (key: (A)=31-95%; (B)=0-30%)
c1csc(-c2ccc(CNC34CC5CC(CC(C5)C3)C4)nc2)c1 [Example 55a, Adamantan-1-yl-(5-thiophen-2-yl-pyridin-2-ylmethyl)-amine] | A (key: (A)=31-95%; (B)=0-30%)

Same assay, conditions: pH 5.5

Compound | S31N OOcyte Inhibition at 100 uM (%)
Oc1cc(I)ccc1CNC12CC3CC(CC(C3)C1)C2 [Example 2b] | A (key: (A)=31-95%; (B)=0-30%)
CSc1ccccc1-c1cc(CNC23CC4CC(CC(C4)C2)C3)no1 [Example 42b, N-((5-(2-(methylthio)phenyl)isoxazol-3-yl)methyl)adamantan-1-amine] | A (key: (A)=31-95%; (B)=0-30%)
C1COC(c2nc(CNC34CC5CC(CC(C5)C3)C4)no2)C1 (stereo not drawn) [Example 21b, N-((5-(tetrahydrofuran-2-yl)-1,2,4-oxadiazol-3-yl)methyl)adamantan-1-amine] | A (key: (A)=31-95%; (B)=0-30%)
CC(C)c1cc(CNC23CC4CC(CC(O)(C4)C2)C3)no1 [Example 85b, (1s,3r,5R,7S)-3-(((5-isopropylisoxazol-3-yl)methyl)amino)adamantan-1-61] | A (key: (A)=31-95%; (B)=0-30%)
c1csc(-c2ccc(CNC34CC5CC(CC(C5)C3)C4)nn2)c1 [Example 71b, Adamantan-1-yl-(6-thiophen-2-yl-pyridazin-3-ylmethyl)-amine] | A (key: (A)=31-95%; (B)=0-30%)
Nc1ncc(CNC23CC4CC(CC(C4)C2)C3)s1 [Example 19b] | B (key: (A)=31-95%; (B)=0-30%)
c1cnc2[nH]c(CNC34CC5CC(CC(C5)C3)C4)nc2c1 [Example 82b, N-((3H-imidazo[4,5-b]pyridin-2-yl)methyl)adamantan-1-amine] | A (key: (A)=31-95%; (B)=0-30%)
COc1ncc(CNC23CC4CC(CC(C4)C2)C3)cn1 [Example 55b, N-((2-methoxypyrimidin-5-yl)methyl)adamantan-1-amine] | A (key: (A)=31-95%; (B)=0-30%)
CSc1ccccc1-c1ccc(CNC23CC4CC(CC(C4)C2)C3)cc1 [Example 66b, Adamantan-1-yl-(2′-methylsulfanyl-biphenyl-4-ylmethyl)-amine] | A (key: (A)=31-95%; (B)=0-30%)
CSc1ccc(-c2cc(CNC34CC5CC(CC(C5)C3)C4)no2)cc1 [Example 37b, N-((5-(4-(methylthio)phenyl)isoxazol-3-yl)methyl)adamantan-1-amine] | A (key: (A)=31-95%; (B)=0-30%)
c1sc(CNC23CC4CC(CC(C4)C2)C3)cc1C1CC1 [Example 48b, N-((4-Cyclopropylthiophen-2-yl)methyl)adamantan-1-amine] | A (key: (A)=31-95%; (B)=0-30%)
COc1ncc(CNC23CC4CC(CC(C4)C2)C3)c(OC)n1 [Example 64b, N-((2,4-dimethoxypyrimidin-5-yl)methyl)adamantan-1-amine] | B (key: (A)=31-95%; (B)=0-30%)
Cc1cccc(-c2ncc(CNC34CC5CC(CC(C5)C3)C4)cn2)c1 [Example 63b, N-((2-mtolylpyrimidin-5-yl)methyl)adamantan-1-amine] | A (key: (A)=31-95%; (B)=0-30%)
C1CCC(c2nc(CNC34CC5CC(CC(C5)C3)C4)no2)CC1 [Example 24b] | A (key: (A)=31-95%; (B)=0-30%)
CC(NC12CC3CC(CC(C3)C1)C2)c1ccc(-c2ccccc2)cc1 (stereo not drawn) [Example 4b, N-(1-([1,1′-biphenyl]-4-yl)ethyl)adamantan-1-amine] | B (key: (A)=31-95%; (B)=0-30%)
COc1cccc(-c2cc(CNC34CC5CC(CC(C5)C3)C4)no2)c1 [Example 39b, N-((5-(3-methoxyphenyl)isoxazol-3-yl)methyl)adamantan-1-amine] | A (key: (A)=31-95%; (B)=0-30%)
c1ccc(-c2cnc(CNC34CC5CC(CC(C5)C3)C4)[nH]2)cc1 [Example 53b, N-((5-phenyl-1H-imidazol-2-yl)methyl)adamantan-1-amine] | A (key: (A)=31-95%; (B)=0-30%)
Cc1ncc(CNC23CC4CC(CC(C4)C2)C3)s1 [Example 16b, N-((2-methylthiazol-5-yl)methyl)adamantan-1-amine] | B (key: (A)=31-95%; (B)=0-30%)
c1cc2nc(CNC34CC5CC(CC(C5)C3)C4)sc2s1 [Example 77b, Adamantan-1-yl-thieno[3,2-d]thiazol-2-ylmethyl-amine] | A (key: (A)=31-95%; (B)=0-30%)
Cc1nnc(CNC23CC4CC(CC(C4)C2)C3)o1 [Example 17b, N-((5-methyl-1,3,4-oxadiazol-2-yl)methyl)adamantan-1-amine] | A (key: (A)=31-95%; (B)=0-30%)
CCOc1ccc(-c2ccc(CNC34CC5CC(CC(C5)C3)C4)s2)cc1 [Example 49b, N-((5-(4-Ethoxyphenyl)thiophen-2-yl)methyl)adamantan-1-amine] | A (key: (A)=31-95%; (B)=0-30%)
Fc1cccc(F)c1-c1cc(CNC23CC4CC(CC(C4)C2)C3)no1 [Example 38b, N-((5-(2,6-difluorophenyl)isoxazol-3-yl)methyl)adamantan-1-amine] | A (key: (A)=31-95%; (B)=0-30%)
c1nc(N2CCOCC2)ncc1CNC12CC3CC(CC(C3)C1)C2 [Example 57b, N-((2-morpholinopyrimidin-5-yl)methyl)adamantan-1-amine] | A (key: (A)=31-95%; (B)=0-30%)
FC(F)(F)c1nnc(CNC23CC4CC(CC(C4)C2)C3)o1 [Example 14b, N-((5-(trifluoromethyl)-1,3,4-oxadiazol-2-yl)methyl)adamantan-1-amine] | A (key: (A)=31-95%; (B)=0-30%)
C[Si](C)(C)c1ccc(CNC23CC4CC(CC(C4)C2)C3)s1 [Example 75b, Adamantan-1-yl-(5-trimethylsilanyl-thiophen-2-ylmethyl)-amine] | A (key: (A)=31-95%; (B)=0-30%)
COc1ccccc1-c1noc(CNC23CC4CC(CC(C4)C2)C3)n1 [Example 30b, N-((3-(2-methoxyphenyl)-1,2,4-oxadiazol-5-yl)methyl)adamantan-1-amine] | A (key: (A)=31-95%; (B)=0-30%)
CN(C)c1ncc(CNC23CC4CC(CC(C4)C2)C3)cn1 [Example 59b, N-((2-dimethylaminopyrimidin-5-yl)methyl)adamantan-1-amine] | A (key: (A)=31-95%; (B)=0-30%)
